Data on 6 molecules can be found in PMC8719441, “Tonoplast-Localized Theanine Transporter CsCAT2 May Mediate Theanine Storage in the Root of Tea Plants (Camellia sinensis L.)” (Frontiers in Plant Science, 2021).

B1: CsCAT2 (Camellia sinensis) (protein)
chain: MGFRCDSQNDGGACPWTCGFKGLIRRKQVDSIHAKSSGSGHHQLAKELSVFHLIAIGVGSTIGAGVYILVGTVAREHSGPALTFSFLIAGIAAALSAFCYAELASRCPSAGSAYHYSYICVGEGVAWLIGWALILEYTIGGSAVARGISPNLALLFGGADSLPFFLARQHLPGLDIVVDPCAALLVIVVTGLLCVGIKESTLVQSIVTTANVCAMLFVIIAGGYLGFKSGWVGYELPVGYFPFGVDGMLAGAATVFFAYIGFDSVASTAEEVKNPQRDLPLGIAAALSICCMLYMLVSVVIVGLVPYYAMDPDTPISSAFASHGMQWAAYIITAGATTALCSTLMGSMLPQPRILMAMSRDGLLPSIFSDVNKRTQVPIKSTVITGVVAAILAFIMDVEQLAGMVSVGTLLAFTMVAISVLILRYVPPDEVPIPSSLQESIDSVSLRYSTSNDNIEEEKPKDHIGSSTQSTRLLLGKVDRPIAYPLIPKQAATILNDNRRKIAGWTIMFTCVGVLLLTSAASSVGLLPSYFRFGVCGIGVVLILSGLVVLTCIDQDDARHSFGHTGGFICPFVPLLPIACVLINVYLLINLGSATWTRVSIWLLIGVLVYAFYGRTHSSLKDAVYVPATHVEEIYRSSENSLP
notes: no tag mentioned

One data set deals with T1, CsCAT2 (Camellia sinensis, UniProt A0A2R3U877).
T1 construct: gene CAT2; no tag mentioned
Kind of data set: competition with theanine uptake in yeast […]Δ[…]α-CsCAT2, HPLC-UV; growth on sole nitrogen source. In kind it is cell-based. Conditions: 200 μM theanine, 10 min.
Take `C[C@H](N)C(=O)O` [alanine]: the “% theanine uptake at 2 mM competitor” value is reported as “CsCAT2's capacity to transport theanine was significantly suppressed by these amino acids”.

`N[C@@H](CC(=O)O)C(=O)O` [aspartic acid]: the “% theanine uptake at 2 mM competitor” value is “CsCAT2's capacity to transport theanine was significantly suppressed by these amino acids”.

In the case of `CC(C)[C@H](N)C(=O)O` [valine], the “% theanine uptake at 2 mM competitor” value is listed as “CsCAT2's capacity to transport theanine was significantly suppressed by these amino acids”.

Regarding `NC(=O)CC[C@H](N)C(=O)O` [glutamine], the “% theanine uptake at 2 mM competitor” value is on record as “CsCAT2's capacity to transport theanine was significantly suppressed by these amino acids”.

Regarding `N[C@@H](CCC(=O)O)C(=O)O` [glutamate], the “% theanine uptake at 2 mM competitor” value is “CsCAT2's capacity to transport theanine was significantly suppressed by these amino acids”.

Substrate in a further data set: CCNC(=O)CC[C@H](N)C(=O)O
Kind of data set: cells, lysate or membranes. Conditions: 0.09375-8 mM theanine, 0-20 min, after 2 h nitrogen starvation; H+-coupled. The format is cell-based, Camellia sinensis.
B1: the Km (usually the substrate concentration at which the rate is half of its maximum) is 450 µM.
